Reference: patent US8598345B2 (priority 2009, dated 2013)

Target: human mGluR5 (Homo sapiens, UniProt P41594)
Sequence (P41594 21-1212): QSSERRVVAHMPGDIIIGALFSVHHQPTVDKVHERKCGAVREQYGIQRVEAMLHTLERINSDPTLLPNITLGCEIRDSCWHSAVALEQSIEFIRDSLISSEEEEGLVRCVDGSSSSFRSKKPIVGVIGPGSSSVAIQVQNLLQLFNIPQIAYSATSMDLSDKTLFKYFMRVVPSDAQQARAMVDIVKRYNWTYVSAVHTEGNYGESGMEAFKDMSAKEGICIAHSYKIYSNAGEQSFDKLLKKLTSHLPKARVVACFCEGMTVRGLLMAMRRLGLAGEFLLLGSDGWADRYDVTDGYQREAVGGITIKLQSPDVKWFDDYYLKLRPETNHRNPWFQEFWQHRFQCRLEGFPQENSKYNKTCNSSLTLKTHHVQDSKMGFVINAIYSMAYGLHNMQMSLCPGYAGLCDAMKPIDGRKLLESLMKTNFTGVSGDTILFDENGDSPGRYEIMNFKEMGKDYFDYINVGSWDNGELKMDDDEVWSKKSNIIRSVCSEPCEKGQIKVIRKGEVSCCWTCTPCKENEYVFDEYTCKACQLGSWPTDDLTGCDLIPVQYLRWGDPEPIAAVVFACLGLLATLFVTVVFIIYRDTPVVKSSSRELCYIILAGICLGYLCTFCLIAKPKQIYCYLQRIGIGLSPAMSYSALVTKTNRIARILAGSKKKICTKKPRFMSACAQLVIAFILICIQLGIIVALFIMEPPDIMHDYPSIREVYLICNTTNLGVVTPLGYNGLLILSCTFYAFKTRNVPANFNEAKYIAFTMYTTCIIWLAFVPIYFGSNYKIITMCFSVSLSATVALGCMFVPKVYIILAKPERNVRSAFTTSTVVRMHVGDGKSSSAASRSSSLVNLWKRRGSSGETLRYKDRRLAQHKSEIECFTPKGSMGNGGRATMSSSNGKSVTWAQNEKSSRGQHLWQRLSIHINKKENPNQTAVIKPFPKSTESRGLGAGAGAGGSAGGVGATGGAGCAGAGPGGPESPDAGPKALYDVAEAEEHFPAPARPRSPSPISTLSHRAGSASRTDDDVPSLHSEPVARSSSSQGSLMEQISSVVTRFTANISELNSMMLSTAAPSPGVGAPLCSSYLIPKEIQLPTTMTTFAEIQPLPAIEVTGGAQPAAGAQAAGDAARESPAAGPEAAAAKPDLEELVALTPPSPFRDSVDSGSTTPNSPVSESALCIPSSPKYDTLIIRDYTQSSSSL
Settings: read-out: human mGluR5 IC50
Procedure: The cells were loaded with a Ca2+-sensitive fluorescent dye (e.g., Fluo-4), and the plates were washed and placed in the FDSS instrument. Test compound was applied to cells 3 seconds after baseline readings were taken. Cells were incubated with the test compounds for 140 seconds and then stimulated with an EC20 concentration of an mGluR5 agonist (e.g., glutamate, 3,5-dihydroxyphenylglycine, or quisqualate); 60-80 seconds later an EC80 concentration of agonist was added and readings taken for an additional 40 seconds. Data were collected at 1 Hz. […] Concentration response curves were generated using a four parameter logistical equation.
The above described assay was operated in two modes. In the first mode (utilizing a triple add protocol), a range of concentrations of the present compounds were added to cells, followed by two single fixed concentrations of agonist (EC20 followed by EC80). If a compound acted as a potentiator, an EC50 value for potentiation of the EC20 response and a maximum extent of potentiation by the compound at this concentration of agonist was determined by non-linear curve fitting. If a compound acted as an antagonist, an IC50 value for antagonism of the EC80 response and a maximum extent of antagonism by the compound at this concentration of agonist was determined by non-linear curve fitting. In the second mode (utilizing a double add protocol), several fixed concentrations of the present compounds were added to various wells on a plate, followed by a range of concentrations of agonist for each concentration of present compound; the EC50 values for the agonist at each concentration of compound were determined by nonlinear curve fitting. A decrease in the EC50 value of the agonist with increasing concentrations of the present compounds (a leftward shift of the agonist concentration-response curve) is an indication of the degree of mGluR5 positive allosteric modulation at a given concentration of the present compound. An increase in the EC50 value of the agonist with increasing concentrations of the present compounds (a rightward shift of the agonist concentration response curve) is an indication of the degree of mGluR5 antagonism at a given concentration of the present compound. The second mode also indicates whether the present compounds also affect the maximum response to mGluR5 to agonists.
The mGluR5 activity was determined using the metabotropic glutamate receptor activity assays in human embryonic kidney cells as described herein. The mGluR5 activity data for some compounds are shown as the average of at least three experiments with the standard error in these cases. If no error is indicated for the mGluR5 activity, the values given represent the results from a single experiment or the average of two experiments.
Compound `O=C(Nc1cccc(F)n1)c1cc(Oc2cncnc2)ccn1` has an IC50 of 161 nM.
For `Cc1csc(NC(=O)c2cc(Oc3cccnc3)ccn2)n1` [N-(4-methylthiazol-2-yl)-4-(pyridin-3-yloxy)picolinamide], the IC50 was 101 nM.
With `Cc1cccc(NC(=O)c2cc(Oc3cncnc3)ccn2)n1` [N-(6-methylpyridin-2-yl)-4-(pyrimidin-5-yloxy)picolinamide] the IC50 was 47 nM.
In the case of `O=C(Nc1ccc(F)cn1)c1cc(Oc2cncnc2)ccn1`, the IC50 is reported as 364 nM.
Work on `O=C(Nc1cc(F)ccn1)c1cc(Oc2cncnc2)ccn1` yielded an IC50 of 201 nM.
With `Cc1nc(NC(=O)c2cc(Oc3cncnc3)ccn2)sc1F` the IC50 was 943 nM.
Work on `Cc1cccc(NC(=O)c2cc(N(C)c3cncnc3)ccn2)n1` yielded an IC50 of 2150 nM.
For `O=C(Nc1cccc(Cl)n1)c1cc(Oc2cncnc2)ccn1`, the IC50 was 245 nM.

Test system: not given
Settings: intravenous administration to rhesus monkeys; literature; cited from earlier work
For `Cc1nc(C#Cc2cccnc2)cs1` [MTEP, 3-[(2-methyl-1,3-thiazol-4-yl)ethynyl]pyridine], the clearance is listed as “efficiently cleared”.
